9 compounds from patent publication US12503471B2, “Triazatricycle compounds for the treatment of autoimmune disease” (Hoffmann-La Roche Inc., priority 2019, dated 2025) can be followed below.

The target in this assay is T1, human TLR9 (Homo sapiens, UniProt Q9NR96).
T1 construct: host or cells: HEK293 (HEK-Blue hTLR9)
T1 sequence (Q9NR96 26-1032): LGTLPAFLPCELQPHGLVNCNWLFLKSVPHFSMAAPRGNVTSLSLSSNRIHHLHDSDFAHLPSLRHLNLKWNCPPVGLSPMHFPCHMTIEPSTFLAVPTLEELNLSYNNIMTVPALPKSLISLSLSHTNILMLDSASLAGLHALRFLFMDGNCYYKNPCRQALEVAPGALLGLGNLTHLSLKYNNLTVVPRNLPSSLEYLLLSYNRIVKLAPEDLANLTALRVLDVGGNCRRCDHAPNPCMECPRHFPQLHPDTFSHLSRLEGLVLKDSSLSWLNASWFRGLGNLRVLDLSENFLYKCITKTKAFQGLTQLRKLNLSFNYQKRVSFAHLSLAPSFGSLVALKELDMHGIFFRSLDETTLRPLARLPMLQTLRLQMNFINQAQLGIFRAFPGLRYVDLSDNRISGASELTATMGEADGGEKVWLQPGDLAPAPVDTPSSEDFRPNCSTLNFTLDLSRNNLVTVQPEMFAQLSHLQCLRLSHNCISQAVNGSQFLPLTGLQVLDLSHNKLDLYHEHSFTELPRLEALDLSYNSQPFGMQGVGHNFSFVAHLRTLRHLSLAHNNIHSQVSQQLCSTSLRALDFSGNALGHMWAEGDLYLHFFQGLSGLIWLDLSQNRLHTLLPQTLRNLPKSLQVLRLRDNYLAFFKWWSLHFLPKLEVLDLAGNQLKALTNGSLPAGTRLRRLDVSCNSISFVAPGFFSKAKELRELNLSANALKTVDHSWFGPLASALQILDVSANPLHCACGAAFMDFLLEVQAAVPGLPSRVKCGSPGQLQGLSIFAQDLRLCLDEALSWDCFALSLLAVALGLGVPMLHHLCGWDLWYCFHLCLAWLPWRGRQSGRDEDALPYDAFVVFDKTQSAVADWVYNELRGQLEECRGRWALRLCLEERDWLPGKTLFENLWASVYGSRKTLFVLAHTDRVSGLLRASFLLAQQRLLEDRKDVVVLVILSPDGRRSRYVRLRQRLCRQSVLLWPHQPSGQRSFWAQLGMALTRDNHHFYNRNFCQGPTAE
The experiment in a line: HEK293-Blue-hTLR-9 cells assay. The assay is classed as cell-based. The conditions noted are these: HEK293-Blue-hTLR9 cells, ODN2006 stimulation, 20 hrs, SEAP reporter; read-out: HEK/hTLR9 IC50. An excerpt:
HEK293-Blue-hTLR-9 Cells Assay:
A stable HEK293-Blue-hTLR-9 cell line was purchased from InvivoGen (Cat. #: hkb-htlr9, San Diego, Calif., USA). These cells were originally designed for studying the stimulation of human TLR9 by monitoring the activation of NF-κB. A SEAP (secreted embryonic alkaline phosphatase) reporter gene was placed under the control of the IFN-β minimal promoter fused to five NF-κB and AP-1-binding sites. The SEAP was induced by activating NF-κB and AP-1 via stimulating HEK-Blue hTLR9 cells with TLR9 ligands. Therefore the reporter expression was declined by TLR9 antagonist under the stimulation of a ligand, such as ODN2006 (Cat. #: tlrl-2006-1, Invivogen, San Diego, Calif., USA), for incubation of 20 hrs. The cell culture supernatant SEAP reporter activity was determined using QUANTI-Blue^TM kit (Cat. #: rep-qbl, Invivogen, San Diego, Calif., USA) at a wavelength of 640 nm, a detection medium that turns purple or blue in the presence of alkaline phosphatase.
HEK293-Blue-hTLR9 cells were incubated at a density of 250,000˜450,000 cells/mL in a volume of 170 μL in a 96-well plate in Dulbecco's Modified Eagle's medium (DMEM) containing 4.5 g/L glucose, 50 U/mL penicillin, […] streptomycin, […] Normocin, 2 mM L-glutamine, 10% (v/v) heat-inactivated fetal bovine serum with addition of 20 μL test compound in a serial dilution in the presence of final DMSO at 1% and 10 μL of 20 uM ODN2006 in above DMEM, perform incubation under 37° C. in a CO2 incubator for 20 hrs. Then 20 μL of the supernatant from each well was incubated with 180 μL Quanti-blue substrate solution at 37° C. for 2 h and the absorbance was read at 620-655 nm using a spectrophotometer. The signaling pathway that TLR9 activation leads to downstream NF-κB activation has been widely accepted, and therefore similar reporter assay was modified for evaluating TLR9 antagonist.
Consider `[2H]c1ccc2c(N3C[C@@H](C)N4Cc5nc(N6CC[C@H]7CNC[C@H]76)ccc5[C@H]4C3)ccc(C#N)c2n1` [Example 10, 5-[(2S,6R)-11-[(3aS,6aS)-3,3a,4,5,6,6a-hexahydro-2H-pyrrolo[2,3-c]pyrrol-1-yl]-6-methyl-4,7,10-triazatricyclo[7.4.0.02,7]trideca-1(9),10,12-trien-4-yl]-2-deuterio-quinoline-8-carbonitrile], for which the IC50 amounted to 186 nM.

With `[2H]c1ccc2c(N3C[C@@H](C)N4Cc5nc(N6CC[C@H](N)[C@@H](OC)C6)ccc5[C@H]4C3)ccc(C#N)c2n1` [Example 12, 5-[(2S,6R)-11-[(3S,4S)-4-amino-3-methoxy-1-piperidyl]-6-methyl-4,7,10-triazatricyclo[7.4.0.02,7]trideca-1(9),10,12-trien-4-yl]-2-deuterio-quinoline-8-carbonitrile], the IC50 is 305 nM.

On to `[2H]c1ccc2c(N3C[C@@H](C)N4Cc5nc(N6CC[C@H](OC)[C@@H](N)C6)ccc5[C@H]4C3)ccc(C#N)c2n1` [Example 14, 5-[(2S,6R)-11-[(3S,4S)-3-amino-4-methoxy-1-piperidyl]-6-methyl-4,7,10-triazatricyclo[7.4.0.02,7]trideca-1(9),10,12-trien-4-yl]-2-deuterio-quinoline-8-carbonitrile], for which the IC50 came to 316 nM.

For `[2H]c1ccc2c(N3C[C@@H](C)N4Cc5nc(N6CC[C@@H](OC)[C@H](N)C6)ccc5[C@H]4C3)ccc(C#N)c2n1` [Example 15, 5-[(2S,6R)-11-[(3R,4R)-3-amino-4-methoxy-1-piperidyl]-6-methyl-4,7,10-triazatricyclo[7.4.0.02,7]trideca-1(9),10,12-trien-4-yl]-2-deuterio-quinoline-8-carbonitrile], the IC50 amounted to 212 nM.

Regarding `[2H]c1ccc2c(N3C[C@@H](C)N4Cc5nc(N6C[C@H]7C[C@@H]6CN7)ccc5[C@H]4C3)ccc(C#N)c2n1` [Example 17, 2-Deuterio-5-[(2S,6R)-11-[(1R,4R)-2,5-diazabicyclo[2.2.1]heptan-2-yl]-6-methyl-4,7,10-triazatricyclo[7.4.0.02,7]trideca-1(9),10,12-trien-4-yl]quinoline-8-carbonitrile], the IC50 came to 53.4 nM.

`[2H]c1ccc2c(N3C[C@@H](C)N4Cc5nc(N6CCC7(CC6)CNCCO7)ccc5[C@H]4C3)ccc(C#N)c2n1` [Example 18, 2-Deuterio-5-[(2S,6R)-6-methyl-11-(1-oxa-4,9-diazaspiro[5.5]undecan-9-yl)-4,7,10-triazatricyclo[7.4.0.02,7]trideca-1(9),10,12-trien-4-yl]quinoline-8-carbonitrile]: the IC50 came out at 262 nM.

Consider `[2H]c1ccc2c(N3C[C@@H](C)N4Cc5nc(N6CCC(C)(N)CC6)ccc5[C@H]4C3)ccc(C#N)c2n1` [Example 19, 5-[(2S,6R)-11-(4-amino-4-methyl-1-piperidyl)-6-methyl-4,7,10-triazatricyclo[7.4.0.02,7]trideca-1(9),10,12-trien-4-yl]-2-deuterio-quinoline-8-carbonitrile], for which the IC50 was 142 nM.

Consider `C[C@@H]1CN(c2ccc(C#N)c3ncccc23)C[C@@H]2c3ccc(N4CCCNCC4)nc3CN12` [Example 20, 5-[(2S,6R)-11-(1,4-diazepan-1-yl)-6-methyl-4,7,10-triazatricyclo[7.4.0.02,7]trideca-1(9),10,12-trien-4-yl]quinoline-8-carbonitrile], for which the IC50 was found to be 206 nM.

On to `[2H]c1ccc2c(N3C[C@@H](C)N4Cc5nc(O[C@H]6CCNC6)ccc5[C@H]4C3)ccc(C#N)c2n1` [Example 25, 2-Deuterio-5-[(2S,6R)-6-methyl-11-[(3S)-pyrrolidin-3-yl]oxy-4,7,10-triazatricyclo[7.4.0.02,7]trideca-1(9),10,12-trien-4-yl]quinoline-8-carbonitrile], for which the IC50 stood at 274 nM.
